Source: patent US9107889B2, “Compositions comprising an NO donor and a dithiolane and their use for improvement of sexual function” (Encrypta GmbH, priority 2005, dated 2015)

How the values were obtained:
premature ejaculation = test: Clinical case reports: duration of intercourse / premature ejaculation; type: in vivo, human; conditions: Case 5; Silfenadil and Verdenafil
Protocol: (§1) A patient complained about worsening of erection since 7 years. Sexual intercourse was only possible in selected position. In addition, they suffered from premature ejaculation. Their libido remained intact. The IEFF score at diagnosis was 11. The diagnosis was physical ED and premature ejaculation. 600 mg α-lipoic acid was given as single dose and arginine was given in 4 single doses over the day of 2 g. The erection improved and the intercourse was prolonged from 1-2 minutes to 7 minutes. The IEFF score changed from 11 to 15 points. The 4 single doses have been changed to a single dose of 10 g arginine, taken together with the α-lipoic acid.
(§2) A patient complained about worsening of erection and premature ejaculation. After administration of Silfenadil and Verdenafil, the erection improved; however, the premature ejaculations remained. The diagnosis was psychogenic ED and premature ejaculation. […] However, 200 mg thioctic acid together with 10 g arginine led to an improvement of the IIEF from 8 to 20 points. The duration of intercourse was extended from 1 to 4 minutes.
A person was able to perform intercourse only after nasal intake of isoamylnitrite since 5 years. However, intercourse was still unsatisfactory due to unpredictable erections and premature ejaculations. The diagnosis was physical erectile dysfunction and premature ejaculation. […]

[1] = test system: erectile dysfunction (ED); test: Clinical case reports: erectile function, International Index of Erectile Function (IIEF) score; type: in vivo, human
Excerpt: ED is clinically assessed by the application of the International Index of Erectile Function (IIEF Scale). The scale consists of 5 items related to erectile function scored from never (1 points) to always (5 points). 21-25 points translate to the absence of ED, 16-20 points relate to a mild ED, 11-15 points relate to a moderate ED and 5-10 points translate to a severe ED.
(§3) A person suffered since 3 months from worsening of erection (reduction of penile tension) and of a slight reduction of libido. Their IIEF count at the examination was 9. All biochemical parameters and hormones were within the normal range. The Doppler sonography of the penile vessels was normal. A challenge test with Silfenadil was positive, thereby excluding an organic pathology of the erectile dysfunction (ED). […] Psychogenic ED was diagnosed after examination. […] Arginine (5 g) and 600 mg α-lipoic acid were taken orally 30 minutes prior intercourse. After therapy, erection normalized. The IIEF score improved from 9 to 21 points.
A person complained since a week about insufficient erection. The person started sexual life with regularly intercourse twice a week. 3 months ago, they changed the sexual partner. At the 1st intercourse with the new partner, they experienced overexcitement. Since that time erection worsened, with an IIEF score of 8 points. The biochemical and hormonal values were within the normal range. The diagnosis was psychogenic ED and failure expectation syndrome. […] After change to 4 g arginine and 300 mg α-lipoic acid, the erection improved. The IIEF score improved from 8 to 12 points. In the meantime, the patient changed to chronic intake of 1 g arginine+100 mg α-lipoic acid daily. Occasionally, they take on demand prior intercourse additional 4 g arginine+300 mg α-lipoic acid.
as §1
A patient (company manager with associated psychological stress) complained about reduced erection and reduced libido since the last 13 years. The morning reactions retained. […] The diagnosis was psychogenic ED and manager syndrome. […] The IIEF score improved from 9 to 24 points. For chronic intake, the daily dose of arginine has been reduced to 2 g, with no change of the α-lipoic acid intake.
as §2

[2] = Adverse events in the clinical cases; type: in vivo, human; conditions: Case 1
Protocol: as §3
None of the cases reported adverse events due to the intake of the combination partners. Attributes of cardiovascular dysfunction were not observed. Acutely, oral liquid presentations were applied, chronically both liquid and solid presentations.

[3] = test system: erectile dysfunction (ED); test: Challenge test with Silfenadil; type: in vivo, human; conditions: Case 1; positive excludes organic pathology of ED
Protocol: as §3

[4] = cited from earlier work
loss of libido in women = test: Clinical case report: female sexual function (libido, orgasm, IFSF questionnaire); type: in vivo, human; conditions: Case 6; arginine alone 3 g daily increased to 10 g
Excerpt: Female sexual function can be assessed by the Index of Female Sexual Function (IFSF), a 9-item self-assessment questionnaire. The IFSF is much more comprehensive in respect of sexual function assessment compared to the IIEF. Parameters to be assessed are discomfort during intercourse, degree of vaginal dryness, number of attempts to intercourse, rate and degree of sexual desire, level of satisfaction with sex life and relationship, degree of clitoral sensation and quality of orgasm.
A person experienced loss of libido after they have born their first child. Intercourse was often painful due to diminished […]. […] Since two years, they regularly attend with their spouse marriage counseling. […] The dose was increased weekly by 100 mg. […] The ISFS questionnaire improved (10 points). They reported that their partnership has improved. Marriage counseling has been aborted.

CCCc1nn(C)c2c(=O)[nH]c(-c3cc(S(=O)(=O)N4CCN(C)CC4)ccc3OCC)nc12 [Silfenadil]
premature ejaculations after administration (premature ejaculation): remained
erection after administration ([1]; Case 5, psychogenic ED and premature ejaculation, Silfenadil and Verdenafil): improved
side effect evoked by administration [2]: severe redness of face
challenge test result [3]: positive

O=C(O)CCCCC1CCSS1 (stereo not drawn) [α-lipoic acid]
pKa [4]: 5.3
change of IIEF score ([1]; Case 1, psychogenic ED, baseline IIEF 9, oral intake of 600 mg α-lipoic acid alone): did not change
effect on erection ([1]; Case 4, psychogenic ED, single dose 200 mg α-lipoic acid alone): without any effect
effect on erection ([1]; Case 4, α-lipoic acid alone increased to 600 mg): did improve the situation

N=C(N)NCCC[C@H](N)C(=O)O [arginine]
change of IIEF score ([1]; Case 2, psychogenic ED, baseline IIEF 8, oral intake of 4 g arginine alone): did not change
effect on ED / premature ejaculation ([1]; Case 5, 10 g arginine on top of basic treatment (Silfenadil, Verdenafil)): without any effect
effect on loss of libido / absent orgasm (loss of libido in women): did not improve the situation
